Experiments:
BrGTR1 (BrF01711) = target: T1, BrGTR1 (BrF01711) (Brassica rapa, UniProt A0A8D9DAH7); assay: oocyte uptake, LC-MS; TEVC currents; assay type: cell-based; conditions: […] substrate, pH […] min
T1 construct: gene BRAPAZ1V2_A06P20680.2; full-length untagged, codon-optimized cRNA in Xenopus laevis oocytes; primer encodes N-term MERKPFE
T1 sequence (A0A8D9DAH7 1-615): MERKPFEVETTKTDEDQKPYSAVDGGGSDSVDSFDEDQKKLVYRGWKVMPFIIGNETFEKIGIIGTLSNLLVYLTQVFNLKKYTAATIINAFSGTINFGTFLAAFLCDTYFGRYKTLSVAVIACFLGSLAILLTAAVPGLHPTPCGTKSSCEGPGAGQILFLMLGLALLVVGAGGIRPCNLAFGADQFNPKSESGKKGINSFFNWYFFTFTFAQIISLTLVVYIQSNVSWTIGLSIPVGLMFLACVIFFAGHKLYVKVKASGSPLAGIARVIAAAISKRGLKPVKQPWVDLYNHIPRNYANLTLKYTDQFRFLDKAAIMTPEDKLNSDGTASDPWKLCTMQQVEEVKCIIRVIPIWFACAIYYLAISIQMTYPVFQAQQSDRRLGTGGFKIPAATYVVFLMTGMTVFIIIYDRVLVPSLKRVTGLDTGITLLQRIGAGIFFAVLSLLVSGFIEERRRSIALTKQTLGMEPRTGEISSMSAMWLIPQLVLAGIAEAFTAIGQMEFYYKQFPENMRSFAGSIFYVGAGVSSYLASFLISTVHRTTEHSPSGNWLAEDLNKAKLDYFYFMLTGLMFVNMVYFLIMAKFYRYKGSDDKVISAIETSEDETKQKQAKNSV

CpGTRL2 (Cp17.190) = test system: T2, CpGTRL2 (Cp17.190); assay: TEVC currents in Xenopus oocytes, Michaelis-Menten fit; assay type: cell-based, Carica papaya; conditions: pH 5, -60 mV membrane potential
T2 construct: full-length untagged, codon-optimized cRNA in Xenopus laevis oocytes; primer encodes N-term MEMDGKE

Me14G074000 = target: T3, Me14G074000 (Manihot esculenta, UniProt A0A2C9ULI5); assay: oocyte uptake, LC-MS; assay type: cell-based; conditions: 0.2 mM substrate, pH 5, 60 min
T3 construct: gene MANES_14G074000v8; full-length untagged, codon-optimized cRNA in Xenopus laevis oocytes; primer encodes N-term MATGETI
T3 sequence (A0A2C9ULI5 entry or part of it): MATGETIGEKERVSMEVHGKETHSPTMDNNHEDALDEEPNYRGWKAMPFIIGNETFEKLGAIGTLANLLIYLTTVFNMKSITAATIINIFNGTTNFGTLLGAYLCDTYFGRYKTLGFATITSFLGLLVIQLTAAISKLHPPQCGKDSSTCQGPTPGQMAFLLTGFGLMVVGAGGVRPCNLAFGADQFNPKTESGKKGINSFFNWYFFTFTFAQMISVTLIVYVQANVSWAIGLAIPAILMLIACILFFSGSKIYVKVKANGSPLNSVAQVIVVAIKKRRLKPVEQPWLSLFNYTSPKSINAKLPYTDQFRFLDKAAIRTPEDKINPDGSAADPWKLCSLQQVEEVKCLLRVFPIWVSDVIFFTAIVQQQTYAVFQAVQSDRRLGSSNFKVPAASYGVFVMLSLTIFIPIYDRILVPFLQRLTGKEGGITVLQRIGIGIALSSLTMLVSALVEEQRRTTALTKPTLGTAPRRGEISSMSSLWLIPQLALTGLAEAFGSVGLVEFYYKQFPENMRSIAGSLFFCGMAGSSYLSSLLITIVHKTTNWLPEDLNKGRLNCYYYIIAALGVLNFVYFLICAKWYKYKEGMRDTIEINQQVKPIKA

Me15G176100 = target: T4, Me15G176100 (Manihot esculenta, UniProt A0A2C9UH66); assay: oocyte uptake, LC-MS; assay type: cell-based; conditions: 0.2 mM substrate, pH 5, 60 min
T4 construct: gene MANES_15G175484v8; full-length untagged, codon-optimized cRNA in Xenopus laevis oocytes; primer encodes N-term MEDKEEKS
T4 sequence (A0A2C9UH66 entry or part of it): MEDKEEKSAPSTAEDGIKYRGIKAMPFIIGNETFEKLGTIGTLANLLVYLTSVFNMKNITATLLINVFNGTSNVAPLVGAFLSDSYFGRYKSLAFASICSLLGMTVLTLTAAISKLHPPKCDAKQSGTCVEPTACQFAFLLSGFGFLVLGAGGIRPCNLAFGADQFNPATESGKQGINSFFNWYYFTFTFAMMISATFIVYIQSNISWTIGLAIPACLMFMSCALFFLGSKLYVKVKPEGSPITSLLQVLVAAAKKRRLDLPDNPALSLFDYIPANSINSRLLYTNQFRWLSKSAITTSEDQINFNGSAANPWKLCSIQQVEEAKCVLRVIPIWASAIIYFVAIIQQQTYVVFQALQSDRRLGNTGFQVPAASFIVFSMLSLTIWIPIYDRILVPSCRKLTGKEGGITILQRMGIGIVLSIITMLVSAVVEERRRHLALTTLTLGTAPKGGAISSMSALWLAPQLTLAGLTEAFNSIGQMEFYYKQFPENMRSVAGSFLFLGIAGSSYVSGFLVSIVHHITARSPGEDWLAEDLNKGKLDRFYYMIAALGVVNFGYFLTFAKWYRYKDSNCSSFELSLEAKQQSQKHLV

BrGTR3 (BrH02396) = target: T5, BrGTR3 (BrH02396) (Brassica rapa, UniProt A0A397YP93); assay: oocyte uptake, LC-MS; TEVC currents; assay type: cell-based; conditions: […] substrate, pH […] min
T5 construct: gene BRARA_H02396; full-length untagged, codon-optimized cRNA in Xenopus laevis oocytes; primer encodes N-term MEVEKTQE
T5 sequence (A0A397YP93 1-591): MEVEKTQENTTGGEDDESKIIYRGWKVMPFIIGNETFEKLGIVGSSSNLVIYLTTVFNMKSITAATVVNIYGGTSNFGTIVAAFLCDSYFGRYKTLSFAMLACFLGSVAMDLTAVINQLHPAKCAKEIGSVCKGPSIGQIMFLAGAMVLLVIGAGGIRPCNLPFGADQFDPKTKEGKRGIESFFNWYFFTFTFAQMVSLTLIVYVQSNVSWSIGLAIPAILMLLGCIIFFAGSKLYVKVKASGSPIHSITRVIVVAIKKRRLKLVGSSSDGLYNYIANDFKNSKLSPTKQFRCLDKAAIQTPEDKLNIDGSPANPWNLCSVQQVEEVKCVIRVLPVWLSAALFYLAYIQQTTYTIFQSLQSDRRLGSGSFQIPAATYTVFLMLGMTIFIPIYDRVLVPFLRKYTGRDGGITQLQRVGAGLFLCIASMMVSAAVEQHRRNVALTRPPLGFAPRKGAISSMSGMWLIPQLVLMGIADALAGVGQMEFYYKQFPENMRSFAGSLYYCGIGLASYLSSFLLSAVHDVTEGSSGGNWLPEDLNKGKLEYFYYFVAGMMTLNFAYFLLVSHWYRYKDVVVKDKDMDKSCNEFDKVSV

GTR3 (NPF2.9, At1g18880) = target: T6, GTR3 (NPF2.9, At1g18880) (Arabidopsis thaliana, UniProt Q9M9V7); assay: TEVC currents in Xenopus oocytes, Michaelis-Menten fit; assay type: cell-based; conditions: pH 5, -60 mV membrane potential
T6 construct: full-length untagged, cRNA in Xenopus laevis oocytes
T6 sequence (Q9M9V7 1-587): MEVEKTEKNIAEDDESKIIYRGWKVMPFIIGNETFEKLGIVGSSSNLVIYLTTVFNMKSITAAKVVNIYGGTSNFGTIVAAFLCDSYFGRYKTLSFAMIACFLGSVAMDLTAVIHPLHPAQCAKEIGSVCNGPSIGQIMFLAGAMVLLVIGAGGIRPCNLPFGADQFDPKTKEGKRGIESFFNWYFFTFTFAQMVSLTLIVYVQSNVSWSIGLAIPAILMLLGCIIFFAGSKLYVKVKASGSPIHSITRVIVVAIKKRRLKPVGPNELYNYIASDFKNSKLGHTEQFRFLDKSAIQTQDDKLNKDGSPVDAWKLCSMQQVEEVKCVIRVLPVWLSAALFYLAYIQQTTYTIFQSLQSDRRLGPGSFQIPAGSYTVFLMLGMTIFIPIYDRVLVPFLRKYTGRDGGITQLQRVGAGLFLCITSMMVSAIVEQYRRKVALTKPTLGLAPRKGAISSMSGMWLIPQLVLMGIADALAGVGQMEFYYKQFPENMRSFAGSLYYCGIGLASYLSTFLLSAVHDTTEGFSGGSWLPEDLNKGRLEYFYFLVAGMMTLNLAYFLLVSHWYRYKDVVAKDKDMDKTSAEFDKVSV

GTR1 (AtGTR1, NPF2.10) = target: T7, GTR1 (AtGTR1, NPF2.10) (Arabidopsis thaliana, UniProt Q944G5); assay: as above; assay type: cell-based; conditions: pH 5, -60 mV membrane potential
T7 construct: full-length untagged, cRNA in Xenopus laevis oocytes
T7 sequence (Q944G5 1-636): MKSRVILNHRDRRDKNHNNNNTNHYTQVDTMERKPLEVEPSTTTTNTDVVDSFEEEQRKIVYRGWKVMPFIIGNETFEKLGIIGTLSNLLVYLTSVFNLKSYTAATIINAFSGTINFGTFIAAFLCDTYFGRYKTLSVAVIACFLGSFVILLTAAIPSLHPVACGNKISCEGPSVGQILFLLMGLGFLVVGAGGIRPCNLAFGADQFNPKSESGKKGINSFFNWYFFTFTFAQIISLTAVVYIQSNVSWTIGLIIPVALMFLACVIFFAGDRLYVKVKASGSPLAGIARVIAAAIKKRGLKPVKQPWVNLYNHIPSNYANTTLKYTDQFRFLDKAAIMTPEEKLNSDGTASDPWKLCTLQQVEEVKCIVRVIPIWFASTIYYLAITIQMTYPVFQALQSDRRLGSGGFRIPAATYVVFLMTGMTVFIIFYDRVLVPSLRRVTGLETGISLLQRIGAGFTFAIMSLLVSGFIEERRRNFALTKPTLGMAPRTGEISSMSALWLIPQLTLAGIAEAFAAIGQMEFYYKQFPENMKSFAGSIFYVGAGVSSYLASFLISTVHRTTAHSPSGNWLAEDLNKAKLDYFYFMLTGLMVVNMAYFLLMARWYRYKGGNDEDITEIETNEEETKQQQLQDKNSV

GTR2 (AtGTR2, NPF2.11) = target: T8, GTR2 (AtGTR2, NPF2.11) (Arabidopsis thaliana, UniProt Q9LV10); assay: as above; assay type: cell-based; conditions: pH 5, -60 mV membrane potential
T8 construct: full-length untagged, cRNA in Xenopus laevis oocytes
T8 sequence (Q9LV10 1-616): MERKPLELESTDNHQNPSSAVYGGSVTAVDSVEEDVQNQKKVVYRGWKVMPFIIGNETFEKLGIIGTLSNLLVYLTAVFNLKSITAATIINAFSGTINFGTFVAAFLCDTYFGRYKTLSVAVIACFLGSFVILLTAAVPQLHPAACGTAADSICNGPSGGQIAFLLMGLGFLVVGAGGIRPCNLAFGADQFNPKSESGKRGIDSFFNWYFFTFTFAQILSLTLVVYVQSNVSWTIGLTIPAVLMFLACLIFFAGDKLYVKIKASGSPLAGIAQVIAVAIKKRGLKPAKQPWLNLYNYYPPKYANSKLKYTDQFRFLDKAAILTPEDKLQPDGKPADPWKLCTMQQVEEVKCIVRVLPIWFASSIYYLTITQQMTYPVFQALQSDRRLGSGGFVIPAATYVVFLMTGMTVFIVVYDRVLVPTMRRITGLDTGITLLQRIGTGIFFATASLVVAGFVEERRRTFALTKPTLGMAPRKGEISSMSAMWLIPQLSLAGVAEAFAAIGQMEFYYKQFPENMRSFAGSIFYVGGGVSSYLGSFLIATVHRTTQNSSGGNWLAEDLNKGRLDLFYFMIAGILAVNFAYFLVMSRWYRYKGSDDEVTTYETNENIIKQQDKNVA

[1] = substrate: CC(C)(C#N)O[C@@H]1O[C@H](CO)[C@@H](O)[C@H](O)[C@H]1O; assay: as above; assay type: cell-based, Manihot esculenta; conditions: pH 5, -60 mV membrane potential
[2] = substrate: N#C[C@H](O[C@@H]1O[C@H](CO)[C@@H](O)[C@H](O)[C@H]1O)c1ccccc1; assay: as above; assay type: cell-based, Manihot esculenta; conditions: pH 5, -60 mV membrane potential

In the case of `CSCCCC/C(=N/OS(=O)(=O)O)S[C@@H]1O[C@H](CO)[C@@H](O)[C@H](O)[C@H]1O` [4MTB, 4-methylthiobutyl glucosinolate], the “oocyte uptake, LC-MS; TEVC currents” value (BrGTR1 (BrF01711)) is reported as “BrGTR1 ortholog (BrF01711) transported 4MTB and I3M with similar efficiency”, the Km (CpGTRL2 (Cp17.190)) is reported as 85 ± 12 µM and the “oocyte uptake, LC-MS” value (Me14G074000) is reported as “Me14G074000 from cassava over-accumulated both 4MTB and I3M relative to external media”.

With `N#C[C@H](O[C@@H]1O[C@H](CO)[C@@H](O)[C@H](O)[C@H]1O)c1ccccc1` [prunasin] the “oocyte uptake, LC-MS” value (Me15G176100) was “Uptake of prunasin was detected in oocytes expressing Me15G176100” and the “oocyte uptake, LC-MS” value (Me14G074000) was “Me14G074000 from cassava accumulated prunasin, but not linamarin, to levels equivalent to media”.

In the case of `O=S(=O)(O)O/N=C(/Cc1c[nH]c2ccccc12)S[C@@H]1O[C@H](CO)[C@@H](O)[C@H](O)[C@H]1O` [I3M, indol-3-yl-methyl glucosinolate], the “oocyte uptake, LC-MS; TEVC currents” value (BrGTR3 (BrH02396)) is reported as “strong preference for I3M by the tested BrGTR3 ortholog (BrH02396)”, the “oocyte uptake, LC-MS; TEVC currents” value (BrGTR1 (BrF01711)) is reported as “BrGTR1 ortholog (BrF01711) transported 4MTB and I3M with similar efficiency” and the Km (GTR3 (NPF2.9, At1g18880)) is reported as < 25 µM. For the same molecule, the Km (GTR1 (AtGTR1, NPF2.10)) was < 25 µM and the Km (GTR2 (AtGTR2, NPF2.11)) was < 25 µM.

B1: MeCGTR1 (Me15G180400) (Manihot esculenta) (protein)
chain: MENGNDHAQDQQKSIEKDEEPVINYRGIKAMPFIIGNETFEKLGTVGSSTNLVVYLNTVFNLKSVTATTLVNIFNGTTNLAPLLGAFLCDTYFGRYKTLGFASVASFLGMSALALTAAVPTLHPPKCVGKESSQCVGPSIWQLAFLLCGFGLIAIGAGGIRPCNLAFGAEQFNPNTESGKRGMSSFFNWYYFTYTFAVMVSVTGIVYVQSDVSWAIGLAIPAFLMFLSCAVFFIGTKIYVIVKPEGSPITSVVQVLVVSVKKRGLKLPQNPAVSLFNYVPAKSINSRLSHTEQFSFLDKAAIVTEKDEINLDGSAANPWRLCSIQQVEEVKCMVRIIPIWASAIIYHVPLIQQQTYAVLQALQLDRRLGTGSFEIPAATFIIFTMLALTIWIPIYDRILVPFLQRLTGKEGGFTLLQRMGIGILLSVLCMFVSGLVESHRRDIALSKPTLGISPKGGAVSSMTWLWLVPQLALAGLSEGFNYVSQIEFYYKQFPENMRSIAGSSFFAGLALANFLSGLLVSTIHKITSATKSGDWLSEDLNKGKLDHFYYVIGVLGTVNMAYFLLCAKWYRYKVREDDGSVEMSNKSSVKHHV
notes: full-length untagged, codon-optimized cRNA in Xenopus laevis oocytes (pNB1u); primer encodes N-term MENGNDH
With B1 the Km [1] was 262 ± 15 µM and the Km [2] was 80 ± 7 µM.

Source: publication PMC5336358, “Origin and evolution of transporter substrate specificity within the NPF family” (eLife, 2017)
